Experiment [1] has as its system A. suum ovijector tissue. Nature of the experiment: Ascaris suum ovijector bioassay.
For experiment [2], the system named is C. elegans (acs-20 cuticle defective mutant). Nature of the experiment: wMicroTracker motility assay. Type of experiment: in vivo, Caenorhabditis elegans. The following applies: 10 μM synthetic As-FLP-18A, M9, 12 h, n > 4 wells.
For experiment [3] the test system is unchanged. Nature of the experiment: C. elegans body length assay. Format: in vivo, Caenorhabditis elegans. To be noted: 100 μM synthetic As-FLP-18A, 96 h, 20 °C, vs S-medium, n > 9 nematodes.
The mark [4] stands for this setting: synthetic As-FLP-18A, 10 μM, HBSS, 10 min.

“Also recorded” adds a separate entry of the source.

We go through 2 substances from article PMC12955800 (ACS chemical neuroscience, 2021).

For GFGDEMSMPGVLR [truncated As-FLP-18A], in experiment [1] (truncated synthetic peptide GFGDEMSMPGVLR, 10 μM), the “effect on ovijector contractility” value was “lacks biological activity in A. suum muscle physiology assays”.

For GFGDEMSMPGVLRF-NH2 [As-FLP-18A], in experiment [2], the “C. elegans motility (locomotory activity)” value was “significant inhibition of locomotion; also recorded: significantly reduced”. The “effect on ovijector muscle” value was “concentration dependent myoexcitatory effects” in experiment [1] (synthetic As-FLP-18A, 1 nM to 10 μM, 10 min); “consistent excitatory effects” in experiment [1] (synthetic As-FLP-18A, 10 nM to 1 μM); “transient muscle contraction followed by muscle paralysis” in experiment [1] (synthetic As-FLP-18A, 1 μM, RT-2-like). Also, the “response type (RT) on ovijector” value in experiment [1] (synthetic As-FLP-18A, 1 μM to 10 nM, 10 min) was “RT-2 responses only”. Moreover, the “preparations with RT-1 response” value in experiment [1] (setting [4]) was 64.2 % of preparations. In addition, in experiment [1] (setting [4]), the “preparations with RT-2 response” value is given as 35.7 % of preparations. The “C. elegans growth (body length)” value in experiment [3] is on record as “this effect was mirrored; also recorded: significantly reduced”.
